Reference: PubChem BioAssay (NCI)
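A five-concentration, 48-hour dose response in 96-well plates underlies each endpoint, interpolated linearly between surrounding concentrations. GI50 marks 50% less growth. The concentration for full growth arrest is given as TGI.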

Legend:
Experiment in all cases: growth of human tumour cells (NCI), 48 h
[1] = test system: PC-3 prostate
[2] = test system: MCF7 breast
[3] = test system: HS 578T breast
[4] = test system: MDA-MB-231 breast
[5] = test system: DMS 114 small cell lung
[6] = test system: DMS 273 small cell lung
[7] = test system: SNB-78 CNS
[8] = test system: MDA-N

Compound	GI50 [1]	TGI [1]	GI50 [2] [nM]	TGI [2] [µM]	GI50 [3]	TGI [3]	GI50 [4]	TGI [4]	TGI [5] [µM]	TGI [6] [µM]	TGI [7] [µM]	GI50 [8] [µg/mL]	TGI [8]
O=c1c2c3c(sc2n2c(-c4cc(-c5ccccc5)nn4-c4ccccc4)nnc2n1Cc1ccccc1)CCCC3	> 100 µM	> 100 µM	> 100000	> 100	48 µM	> 100 µM	> 100000 nM	> 100 µM	–	–	–	–	–
NC(N)=NS(=O)(=O)c1ccc(NC(=O)c2cccc3c(Nc4ccc(S(N)(=O)=O)cc4)c4ccccc4nc23)cc1	–	–	–	–	–	–	–	–	> 100	> 100	> 100	–	–
N=S(c1ccccc1)c1ccccc1[N+](=O)[O-] (stereo not drawn)	–	–	–	–	–	–	–	–	32.7	34.4	> 100	–	–
O=C(NC12CC3CC(CC(C3)C1)C2)C(=O)c1c[nH]c2ccc(Cl)cc12	–	–	–	–	–	–	–	–	> 100	> 100	> 100	–	–
OB1OCc2cc(/C=C/c3cccc(C(F)(F)F)c3)ccc21	1.88 µM	> 100 µM	452	44.4	4.49 µM	66.6 µM	2620 nM	11.1 µM	–	–	–	–	–
Cn1c2ccccc2c2c(=O)c3ccccc3[nH]c21	27.5 µM	73.2 µM	30300	> 100	> 100 µM	> 100 µM	87100 nM	> 100 µM	–	–	–	–	–
NC(=O)c1cccc(Nc2nccc(Nc3cccc(F)c3)n2)c1	8.39 µM	> 25 µM	11000	> 25	6.23 µM	> 25 µM	17500 nM	> 25 µM	–	–	–	–	–
CCOC1Oc2ccccc2-c2oc(=O)c(Sc3ccc(C)cc3)cc21 (stereo not drawn)	17.8 µM	> 100 µM	19800	> 100	34.5 µM	> 100 µM	16900 nM	67.7 µM	–	–	–	–	–
CCN(CC)CCNC(=O)c1cn2ncnc(Oc3ccc(NC(=O)Nc4ccc(Cl)c(C(F)(F)F)c4)c(F)c3)c2c1C	1.53 µM	3.3 µM	1400	3.15	1.52 µM	4.29 µM	1630 nM	3.28 µM	–	–	–	–	–
Cn1cc(-c2csc(-c3cn(C)c4ccccc34)n2)c2cnccc21	1.47 µM	2.99 µM	324	1.66	2.16 µM	4.65 µM	1470 nM	2.89 µM	–	–	–	–	–
CCCCCCCCCCN=C(c1ccc(N(C)C)cc1)c1ccc(N(C)C)cc1	2.71 µM	> 86 µM	356	> 100	1.02 µM	39.1 µM	876 nM	23.9 µM	–	–	–	–	–
CCCCCCCCCCCCCCCCCCNC(=O)[C@H]1CSC(c2cccs2)N1 (stereo partly drawn)	1.75 µM	> 50 µM	764	1.58	1.17 µM	2.98 µM	826 nM	1.59 µM	–	–	–	–	–
OC(CN1CC1)C(O)CN1CC1 (stereo not drawn)	> 50 µg/mL	> 50 µg/mL	–	–	> 50 µg/mL	> 50 µg/mL	> 50 µg/mL	> 50 µg/mL	–	–	–	> 50	> 50 µg/mL
O=C1C=C(O)c2[nH]c(=O)ccc2C1=O	–	–	–	–	–	–	–	–	–	> 100	> 100	–	–
CC1(C)N=C(N)N=C(N)N1c1ccc(OCC(=O)Nc2ccccc2)c(Cl)c1	0.123 µM	> 66.5 µM	886	> 100	> 100 µM	> 100 µM	> 100000 nM	> 100 µM	–	–	–	–	–
COc1ccc(CC(C)C(C)Cc2ccc(OC)c(OC)c2)cc1OC (stereo not drawn)	> 1400 µM	> 1400 µM	650000	> 1400	> 1400 µM	> 1400 µM	126000 nM	> 1400 µM	–	–	–	–	–
C[C@H]1[C@H](C)CC[C@]2(C(=O)NCCNCCN)CC[C@]3(C)C(=CC[C@@H]4[C@@]5(C)CCC(=O)C(C)(C)[C@@H]5CC[C@]43C)[C@H]12	1.74 µM	3.81 µM	1700	3.25	1.7 µM	3.74 µM	1660 nM	3.08 µM	–	–	–	–	–
Cc1cc(Nc2nc(SCc3ccc(C(=O)Nc4ccc(F)cc4N)cc3)nn3cccc23)n[nH]1	0.355 µM	44.2 µM	51.8	29.3	0.429 µM	> 100 µM	854 nM	> 100 µM	–	–	–	–	–
OC(c1ccc(Br)cc1)(c1cccs1)C1CC1 (stereo not drawn)	–	52.8 µM	–	72.6	–	49.5 µM	–	39.6 µM	–	–	–	–	41.8 µM
C=C(CN1CCc2ccccc2C1)c1ccc(C(=O)Nc2ccccc2N)cc1	2.01 µM	> 50 µM	2080	> 31.6	3.7 µM	36.5 µM	973 nM	3.15 µM	–	–	–	–	–
CCCCCCCCCCCC[n+]1ccccc1 (tested in a mixture with another compound)	0.208 µM	0.937 µM	1040	5.5	1.71 µM	5.15 µM	1220 nM	3.37 µM	–	–	–	–	–
COc1ccc(/C=C2/CCc3cc4ccc(OC)cc4[o+]c32)c(O)c1	2.74 µM	16.2 µM	4310	22	4.28 µM	34.5 µM	3750 nM	18.8 µM	–	–	–	–	–
O=C1C(Cl)=C(Nc2ccccc2)C(=O)c2ccccc21	3.61 µM	22.1 µM	1500	3.53	3.05 µM	30.5 µM	1580 nM	3.3 µM	–	–	–	–	–
CN(C)Cc1c[nH]c2c(NCCN)c3c(c(NCCN)c12)C(=O)c1ccccc1C3=O	2.34 µM	8.42 µM	19000	94.1	3.38 µM	10.9 µM	949 nM	2.86 µM	–	–	–	–	–
C=CCO/N=C/c1cc(NC(=S)c2ccoc2C)ccc1Cl	–	27.6 µM	–	23.3	–	64.4 µM	–	30.1 µM	–	–	–	–	32.2 µM
